These results are taken from ChEMBL document CHEMBL4411324, “Comprehensive structure-activity-relationship of azaindoles as highly potent FLT3 inhibitors” (Bioorg Med Chem, 2019).

In general, logD refers to the decadic logarithm of the distribution of all forms, ionised or not, between an organic phase and buffer at a given pH. Low values mean lower lipophilicity, high ones higher lipophilicity. In general, IC50 refers to the concentration that inhibits the measured activity by half.

Each structure is given as a SMILES string.

Receptor-type tyrosine-protein kinase FLT3, sequence (P36888 whole entry, looked up, stated change not applied, the tested form may be a part): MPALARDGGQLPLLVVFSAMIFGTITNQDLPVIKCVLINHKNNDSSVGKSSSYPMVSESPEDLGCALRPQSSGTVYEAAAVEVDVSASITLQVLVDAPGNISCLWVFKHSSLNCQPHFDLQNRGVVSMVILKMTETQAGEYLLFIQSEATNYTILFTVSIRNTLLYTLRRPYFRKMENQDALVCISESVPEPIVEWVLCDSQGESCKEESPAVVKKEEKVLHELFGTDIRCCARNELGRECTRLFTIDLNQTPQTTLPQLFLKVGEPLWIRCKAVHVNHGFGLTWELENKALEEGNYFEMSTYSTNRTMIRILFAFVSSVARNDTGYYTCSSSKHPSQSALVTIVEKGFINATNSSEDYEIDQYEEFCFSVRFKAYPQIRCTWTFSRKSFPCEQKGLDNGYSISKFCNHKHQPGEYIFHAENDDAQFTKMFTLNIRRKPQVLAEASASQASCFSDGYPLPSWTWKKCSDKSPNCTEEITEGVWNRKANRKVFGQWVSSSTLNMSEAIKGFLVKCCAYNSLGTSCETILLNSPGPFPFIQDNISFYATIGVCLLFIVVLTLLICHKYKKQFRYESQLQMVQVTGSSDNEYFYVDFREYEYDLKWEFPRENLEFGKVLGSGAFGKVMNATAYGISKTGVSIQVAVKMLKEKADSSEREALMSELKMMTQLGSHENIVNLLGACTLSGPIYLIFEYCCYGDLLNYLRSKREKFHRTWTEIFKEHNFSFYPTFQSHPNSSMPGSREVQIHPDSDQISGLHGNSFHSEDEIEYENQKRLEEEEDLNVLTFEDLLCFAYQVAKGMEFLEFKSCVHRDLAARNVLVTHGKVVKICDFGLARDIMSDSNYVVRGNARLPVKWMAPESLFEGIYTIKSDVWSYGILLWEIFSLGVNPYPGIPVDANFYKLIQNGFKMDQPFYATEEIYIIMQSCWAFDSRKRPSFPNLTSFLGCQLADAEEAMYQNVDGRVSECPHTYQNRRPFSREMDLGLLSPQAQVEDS

Test system in one series: not listed separately
Description: Lipophilicity, log D of the compound at pH 7.4. It is filed as physicochemical. Particulars: buffer.
`O=S(=O)(NCCNC/C=C/c1ccc(-c2cccnc2)cc1)c1cccc2cnccc12` displayed a logD of 1.5.

The next series addresses Receptor-type tyrosine-protein kinase FLT3 (Homo sapiens, UniProt P36888, ITD). As to the kind of experiment: Inhibition of recombinant human N-terminal GST/His6-fused FLT3 ITD mutant (R571 to S993 residues) expressed in Sf9 insect cells assessed as residual activity using ULightTM-TK peptide as substrate incubated for 90 mins under dark condition by FRET assay.
Details: not given
On to `CN(C/C=C/c1ccc(-c2cccnc2)cc1)CCN(C)S(=O)(=O)c1cccc2cnccc12`, for which the IC50 is 126 nM.

As for `O=C(CCc1ccc(-c2cnc3[nH]ccc3c2)cc1)NCCNS(=O)(=O)c1cccc(Cl)c1`, the IC50 was 1.91 nM. The same measure, in the same setting: the value for `O=S(=O)(NCCNCCc1ccc(-c2cccnc2)cc1)c1cccc2cnccc12` was 269 nM; that for `Nc1nccc2c(S(=O)(=O)NCCNC/C=C/c3ccc(-c4cccnc4)cc3)cccc12` was 24 nM; that for `O=S(=O)(NCCNCc1ccc(-c2cccnc2)cc1)c1cccc2cnccc12` was 158 nM.

In the case of `O=C(NCCNC/C=C/c1ccc(-c2cccnc2)cc1)c1cccc2cnccc12`, the IC50 was greater than 10000 nM. On the same count and under the same terms, next, `O=S(=O)(NCCNC/C=C/c1ccc(-c2ccccc2)cc1)c1cccc2cnccc12`: greater than 10000 nM. With `O=C(CCc1ccc(-c2cnc3[nH]ccc3c2)cc1)NCCNS(=O)(=O)c1ccc(Cl)c(Cl)c1`, the IC50 is 4.07 nM.

As to `Cc1ccc(S(=O)(=O)NCCNCCCc2ccc(-c3cnc4[nH]ccc4c3)cc2)cc1`, the IC50 was 2.04 nM. `O=S(=O)(NCCNC/C=C/c1ccc(-c2cccnc2)cc1)c1cccc2cnccc12`: the IC50 is 9.55 nM. For the compound `Cc1ccc(S(=O)(=O)NCCNC(=O)CCc2ccc(-c3cnc4[nH]ccc4c3)cc2)cc1`, the IC50 is 2.14 nM. Still for that read-out and setting: next, `Nc1ncccc1-c1ccc(CCC(=O)NCCNS(=O)(=O)c2cccc3cnccc23)cc1`: 151 nM; `CN(C/C=C/c1ccc(-c2cccnc2)cc1)CCNS(=O)(=O)c1cccc2cnccc12`: 135 nM. On the same count and under the same terms, the value for `O=S(=O)(NCCOC/C=C/c1ccc(-c2cccnc2)cc1)c1cccc2cnccc12` was 8.32 nM; that for `O=C1NCc2c1cccc2S(=O)(=O)NCCNC/C=C/c1ccc(-c2cccnc2)cc1` was 20 nM. On the same count and under the same terms, next, `CS(=O)(=O)NCCNC/C=C/c1ccc(-c2cccnc2)cc1`: 646 nM; `O=S(=O)(NCCNCCCc1ccc(-c2cnc3[nH]ccc3c2)cc1)c1ccc(Cl)c(Cl)c1`: 7.41 nM; `COc1ccc(S(=O)(=O)NCCNCCCc2ccc(-c3cnc4[nH]ccc4c3)cc2)cc1`: 2.4 nM. On to `O=S(=O)(NCCNCCCc1ccc(-c2cnc3[nH]ccc3c2)cc1)c1ccccc1`, for which the concentration for half-maximal inhibition (IC50) is 1.32 nM. For the compound `O=C(CCc1ccc(-c2cnc3[nH]ccc3c2)cc1)NCCNS(=O)(=O)c1cccc(C(F)(F)F)c1`, the IC50 was 4.27 nM. Still for that read-out and setting: next, `CN(CCNCCCc1ccc(-c2cccnc2)cc1)S(=O)(=O)c1cccc2cnccc12`: 47.9 nM. Turning to `CN(CCNC/C=C/c1ccc(-c2cccnc2)cc1)S(=O)(=O)c1cccc2cnccc12`, the IC50 is 182 nM. On the same count and under the same terms, the value for `O=S(=O)(NCCNC/C=C/c1ccc(-c2cccnc2)cc1)c1ccc2cn[nH]c2c1` was 17 nM; that for `CNC(=O)c1ccc(S(=O)(=O)NCCNC/C=C/c2ccc(-c3cccnc3)cc2)cn1` was 13.8 nM; that for `O=S(=O)(NCCNC/C=C/c1ccc(-c2cccnc2)cc1)c1cccc2ccccc12` was 61.7 nM. Turning to `O=S(=O)(NCCNC/C=C/c1ccc(-c2cccnc2)cc1)c1ccc2[nH]ncc2c1`, the IC50 was 9.77 nM. Same read-out and setting: next, `O=C(CCc1ccc(-c2cnc3[nH]ccc3c2)cc1)NCCNS(=O)(=O)c1cc(Cl)cc(Cl)c1`: 6.92 nM; `COc1ccc(S(=O)(=O)NCCNC(=O)CCc2ccc(-c3cnc4[nH]ccc4c3)cc2)cc1`: 1.82 nM.

Regarding `O=C(CCc1ccc(-c2cccnc2)cc1)NCCNS(=O)(=O)c1cccc2cnccc12`, the IC50 is 32.4 nM. The same measure, in the same setting: the value for `O=C(CCc1ccc(-c2cnc3[nH]ccc3c2)cc1)NCCNS(=O)(=O)c1ccccc1` was 0.324 nM; that for `O=S(=O)(NCCNCc1ccc2cc(-c3cccnc3)ccc2c1)c1cccc2cnccc12` was 562 nM; that for `O=S(=O)(NCCOCCCc1ccc(-c2cccnc2)cc1)c1cccc2cnccc12` was 38.9 nM.

For `O=S(=O)(NCCNCCCc1ccc(-c2cccnc2)cc1)c1cccc2cnccc12`, the IC50 was 8.91 nM. On the same count and under the same terms, next, `Nc1ccccc1S(=O)(=O)NCCNC/C=C/c1ccc(-c2cccnc2)cc1`: 26.9 nM; `O=C1NCc2cc(S(=O)(=O)NCCNC/C=C/c3ccc(-c4cccnc4)cc3)ccc21`: 18.2 nM. On the same count and under the same terms, the value for `Nc1cc2c(S(=O)(=O)NCCNC/C=C/c3ccc(-c4cccnc4)cc3)cccc2cn1` was 19.5 nM; that for `O=[N+]([O-])c1ccccc1S(=O)(=O)NCCNC/C=C/c1ccc(-c2cccnc2)cc1` was 8.51 nM.

Take `Nc1ccc(-c2ccc(CCC(=O)NCCNS(=O)(=O)c3cccc4cnccc34)cc2)cn1`: the IC50 was 23.4 nM.

Take `O=C(CCc1ccc(-c2cnc3[nH]ccc3c2)cc1)NCCNS(=O)(=O)c1ccccc1Cl`: the IC50 was 0.479 nM. Still for that read-out and setting: next, `O=S(=O)(NCCNC/C=C/c1ccc(-c2ccc3ccccc3c2)cc1)c1cccc2cnccc12`: greater than 10000 nM. Same read-out and setting: next, `O=S(=O)(NCCNCCCc1ccc(-c2cnc3[nH]ccc3c2)cc1)c1ccc(Cl)cc1`: 4.37 nM. Still for that read-out and setting: next, `CNC(=O)c1ccc(-c2ccc(CCC(=O)NCCNS(=O)(=O)c3cccc4cnccc34)cc2)cn1`: greater than 10000 nM; `O=C(CCc1ccc(-c2cnc3[nH]ccc3c2)cc1)NCCNS(=O)(=O)c1cccc2cnccc12`: 1.35 nM; `O=C1NCc2ccc(S(=O)(=O)NCCNC/C=C/c3ccc(-c4cccnc4)cc3)cc21`: 47.9 nM.

`CNC(=O)c1ncccc1-c1ccc(CCC(=O)NCCNS(=O)(=O)c2cccc3cnccc23)cc1`: the IC50 is greater than 10000 nM. On the same count and under the same terms, next, `O=S(=O)(NCCCCCCc1ccc(-c2cccnc2)cc1)c1cccc2cnccc12`: 170 nM; `O=C(CCc1ccc(-c2cnc3[nH]ccc3c2)cc1)NCCNS(=O)(=O)c1ccc(Cl)cc1`: 2.4 nM; `O=C(CCc1ccc(-c2cnc3[nH]ccc3c2)cc1)NCCNS(=O)(=O)c1ccc(F)cc1`: 0.407 nM. Still for that read-out and setting: the value for `O=S(=O)(NCCNCCCc1ccc(-c2cnc3[nH]ccc3c2)cc1)c1cccc2cnccc12` was 1.66 nM.

The test system of the next series is Receptor-type tyrosine-protein kinase FLT3 (Homo sapiens), P36888 [UNDEFINED MUTATION]. As to the kind of experiment: Inhibition of recombinant human N-terminal GST/His6-fused FLT3 ITD mutant (R571 to S993 residues) expressed in Sf9 insect cells assessed as residual activity at 2 uM using ULightTM-TK peptide as substrate incubated for 90 mins under dark condition by FRET assay relative to control.
Receptor-type tyrosine-protein kinase FLT3 (Homo sapiens), P36888 [UNDEFINED MUTATION], sequence (P36888 whole entry, looked up, stated change not applied, the tested form may be a part): as above
Details: not given
For `O=S(=O)(NCCNC/C=C/c1ccc(-c2cccnc2)cc1)c1cccc2cnccc12`, the Activity turned out to be 13%.

Turning to `O=S(=O)(NCCNC/C=C/c1ccc(-c2cn[nH]c2)cc1)c1cccc2cnccc12`, the Activity was determined as 14%. Take `O=S(=O)(NCCNC/C=C/c1ccc(-c2cncnc2)cc1)c1cccc2cnccc12`: the Activity was found to be 13%. As for `O=S(=O)(NCCNC/C=C/c1ccc(-c2cnc3ccccc3c2)cc1)c1cccc2cnccc12`, the Activity is 9%.
